Measurements reported in US20230256007A1 (priority 2022, published 2023).

Tests used:
[1] = tested on: patient with sequelae of influenza virus type A infection; details: Case 3
[2] = tested on: patient with sequelae of infection with the delta variant of coronavirus; details: Case 1
From the text: Although the patient was cured after home care, their activity level was lower than that of a healthy person. Fatigue, pain, and decrease in thinking power progressed extremely, and the level of daily life decreased below the level of a healthy person, so they underwent a medical examination at the hospital. The diagnosis based on the physician’s diagnostic criteria was as follows. • (i) Fatigue - persistent, fatigue so pronounced that the activity level is severely impaired: severity 3 (severe) • (ii) Feeling of fatigue after exertion - loss of physical and mental endurance, fatigue aggravated by physical exertion: severity 3 (severe) • (iii) Long recovery time from exertion - it takes 24 hours or more to recover to pre-exertion activity level: severity 2 (moderate) • (iv) Pain - muscle pain, joint pain, headache: severity 2 (moderate) • (v) Sleeping disorder - nonrestorative sleep, insomnia, hypersomnia: severity 2 (moderate) • (vi) Confusion and loss of concentration: severity 2 (moderate) • (vii) Memory impairment - short-term memory is impaired: severity 1 (mild) • (viii) Shortness of breath associated with exertion: severity 2 (moderate) • (ix) Gastrointestinal disorder - diarrhea, irritable bowel syndrome: severity 1 (mild) • (x) Repeated sore throat: severity 1 (mild) • (xi) Dizziness when standing up or fragility: severity 1 (mild) • (xii) Heat/cold intolerance: severity 1 (mild) • (xiii) Body temperature changes, irregular body temperature, cold hands and feet: severity 1 (mild)

[3] = around 3 weeks after inhalation
[4] = after 4 weeks of inhalation, before inhalation severity 2: moderate

[HH] [hydrogen gas, hydrogen]
Number of days without naps ([1]; after 8 weeks): increased | Amount of time for physical activity ([1]; after 8 weeks, although there was malaise): increased | Bowel movements and decreased motivation [1, 3]: improvement | Nap time [1, 3]: decreased | General feeling ([1]; around 3 weeks after inhalation, about 4% to 5% hydrogen, 5 hours per day): felt a little lighter | Effect on chronic fatigue, pain, and brain fog (summary) [2]: clearly effective | Feeling on inhalation (sympathetic nerves high before inhalation) ([2]; after 2 weeks of inhalation): felt relaxed and drowsy | Foggy head / brain fog ([2]; after 2 weeks of inhalation): their head appeared clear and refreshed | Frequency of headache and generalized pain ([2]; after 2 weeks of inhalation): seemed to decrease | Number of doses of analgesics ([2]; after 2 weeks of inhalation): decreased | Bedridden chronic severe fatigue (patient's impression) ([2]; after 4 weeks of inhalation): significantly alleviated | Cognitive ability (patient's impression) ([2]; after 4 weeks of inhalation): regained some of their writing and summarizing skills | Foggy feeling in the brain (patient's impression) ([2]; after 4 weeks of inhalation): alleviated | Number of doses of analgesics relative to that before hydrogen inhalation ([2]; after 4 weeks of inhalation): ¼ | Other symptoms (not significantly recovered) ([2]; after 4 weeks of inhalation): did not worsen | Sleeping disorder ([2]; after 4 weeks of inhalation): same strong symptoms as before | Long recovery time from exertion: severity after inhalation (physician's diagnosis) [2, 4]: severity 1: mild | Loss of concentration: severity after inhalation (physician's diagnosis) [2, 4]: severity 1: mild | Pain, headache: severity after inhalation (physician's diagnosis) [2, 4]: severity 1: mild | Repeated sore throat: severity after inhalation (physician's diagnosis) [2, 4]: severity 1: mild | Fatigue - persistent, activity level severely impaired: severity after inhalation (physician's diagnosis) ([2]; after 4 weeks of inhalation, before inhalation severity 3: severe): severity 1: mild, or severity 2: moderate | Days on which they feel better like a healthy person ([2]; after 4 weeks of inhalation, still falls asleep 2 or 3 days a week): more than half the days of the week | Pain due to training, the next day ([2]; inhalation for about 90 minutes every day): almost eliminated the pain the next day | Falling asleep 1 to 2 hours after exertion (sudden intense fatigue) ([2]; inhaling hydrogen for about 90 minutes): can avoid falling asleep | Frequency of headache (patient's impression) ([2]; since the start of inhalation, once or twice a week before): decreased significantly, and headache has almost disappeared | Muscle pain and joint pain after training ([2]; two weeks after starting inhalation): began to be greatly alleviated
